For assay [1], the target named is T1, His-GST-TVMV-hRIPK1(1-324) (Homo sapiens, UniProt Q13546).
T1 construct: The coding region of human RIPK1(1-324) flanked by NdeI site at 5′ end; made in house; host or cells: Spodoptera frugiperda Sf9 insect cells (baculovirus, Bac-to-Bac)
T1 sequence (Q13546 1-324): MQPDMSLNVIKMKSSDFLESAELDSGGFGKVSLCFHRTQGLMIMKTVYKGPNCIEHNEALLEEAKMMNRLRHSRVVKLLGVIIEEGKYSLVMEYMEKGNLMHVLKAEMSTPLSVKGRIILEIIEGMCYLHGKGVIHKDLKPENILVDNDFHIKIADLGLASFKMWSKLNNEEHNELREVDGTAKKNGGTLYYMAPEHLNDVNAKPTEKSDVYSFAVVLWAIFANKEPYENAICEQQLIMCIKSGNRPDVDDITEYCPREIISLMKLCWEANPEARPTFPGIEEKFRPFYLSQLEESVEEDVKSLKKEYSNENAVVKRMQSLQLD
Description: biochemical. Type of assay: binding.

Assay [2] relates to MLKL phosphorylation in HT29-L23 human colorectal adenocarcinoma cells. Nature of the assay: MLKL phosphorylation high-content assay. Type of assay: cell-based.
In assay [3] the target is GST-tagged PIK3Cδ in complex with PIK3R1 (Homo sapiens, UniProt O00329). Description: PI3Kδ HTRF binding assay. The conditions noted are these: read-out: PIK3CD IC50.
[4] abbreviates: HTRF probe displacement, 1 h at rt, read-out: RIPK1 IC50.
[5] abbreviates: read-out: pMLKL IC50, HT29-L23 cells, necroptosis induced with TNFα, SMAC mimetic and Z-VAD, 6 h, maximal inhibition defined by Nec1s.
The mark [6] stands for this setting: HTRF probe displacement, 1 h at rt.
Setting [7] is: Homo sapiens, 6 h, read-out: pMLKL IC50, HT29-L23 cells, necroptosis induced with TNFα, SMAC mimetic and Z-VAD, 6 h, maximal inhibition defined by Nec1s.
Where [8] appears, read: Table 22, compounds of the present invention, read-out: RPIK1 IC50.

This note sets out measurements from US11767322B2 (BRISTOL-MYERS SQUIBB COMPANY, priority 2020, dated 2023).

Read-outs that look alike come from different tables or passages of the source.

GST-tagged PIK3Cδ in complex with PIK3R1, sequence (O00329 whole entry): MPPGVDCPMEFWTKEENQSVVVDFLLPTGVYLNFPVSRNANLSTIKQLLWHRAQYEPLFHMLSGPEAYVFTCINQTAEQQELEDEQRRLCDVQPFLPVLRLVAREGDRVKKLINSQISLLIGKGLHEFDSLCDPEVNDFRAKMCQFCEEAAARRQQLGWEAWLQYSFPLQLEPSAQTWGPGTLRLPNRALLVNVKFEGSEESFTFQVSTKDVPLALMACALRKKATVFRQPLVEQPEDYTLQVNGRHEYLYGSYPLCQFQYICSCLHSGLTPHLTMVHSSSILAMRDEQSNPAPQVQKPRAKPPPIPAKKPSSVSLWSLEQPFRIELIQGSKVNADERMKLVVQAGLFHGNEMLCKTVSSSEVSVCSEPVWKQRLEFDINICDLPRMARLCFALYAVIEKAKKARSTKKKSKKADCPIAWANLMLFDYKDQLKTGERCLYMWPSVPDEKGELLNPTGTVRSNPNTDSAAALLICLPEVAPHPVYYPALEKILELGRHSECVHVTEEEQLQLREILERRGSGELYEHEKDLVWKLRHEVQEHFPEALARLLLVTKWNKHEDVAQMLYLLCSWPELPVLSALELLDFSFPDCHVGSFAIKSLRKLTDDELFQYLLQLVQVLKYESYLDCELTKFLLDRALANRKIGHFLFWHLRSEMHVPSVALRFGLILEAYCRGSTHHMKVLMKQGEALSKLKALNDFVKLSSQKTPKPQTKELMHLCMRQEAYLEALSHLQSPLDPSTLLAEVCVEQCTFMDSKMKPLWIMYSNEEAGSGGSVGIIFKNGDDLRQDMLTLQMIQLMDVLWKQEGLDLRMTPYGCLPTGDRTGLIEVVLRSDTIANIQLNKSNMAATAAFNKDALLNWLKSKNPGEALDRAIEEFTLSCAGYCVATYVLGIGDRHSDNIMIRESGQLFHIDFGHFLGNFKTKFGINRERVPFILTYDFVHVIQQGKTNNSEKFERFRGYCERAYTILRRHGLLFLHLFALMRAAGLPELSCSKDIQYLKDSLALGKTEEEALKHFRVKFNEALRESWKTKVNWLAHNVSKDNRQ
GST-tagged PIK3Cδ in complex with PIK3R1, sequence (P27986 whole entry partner): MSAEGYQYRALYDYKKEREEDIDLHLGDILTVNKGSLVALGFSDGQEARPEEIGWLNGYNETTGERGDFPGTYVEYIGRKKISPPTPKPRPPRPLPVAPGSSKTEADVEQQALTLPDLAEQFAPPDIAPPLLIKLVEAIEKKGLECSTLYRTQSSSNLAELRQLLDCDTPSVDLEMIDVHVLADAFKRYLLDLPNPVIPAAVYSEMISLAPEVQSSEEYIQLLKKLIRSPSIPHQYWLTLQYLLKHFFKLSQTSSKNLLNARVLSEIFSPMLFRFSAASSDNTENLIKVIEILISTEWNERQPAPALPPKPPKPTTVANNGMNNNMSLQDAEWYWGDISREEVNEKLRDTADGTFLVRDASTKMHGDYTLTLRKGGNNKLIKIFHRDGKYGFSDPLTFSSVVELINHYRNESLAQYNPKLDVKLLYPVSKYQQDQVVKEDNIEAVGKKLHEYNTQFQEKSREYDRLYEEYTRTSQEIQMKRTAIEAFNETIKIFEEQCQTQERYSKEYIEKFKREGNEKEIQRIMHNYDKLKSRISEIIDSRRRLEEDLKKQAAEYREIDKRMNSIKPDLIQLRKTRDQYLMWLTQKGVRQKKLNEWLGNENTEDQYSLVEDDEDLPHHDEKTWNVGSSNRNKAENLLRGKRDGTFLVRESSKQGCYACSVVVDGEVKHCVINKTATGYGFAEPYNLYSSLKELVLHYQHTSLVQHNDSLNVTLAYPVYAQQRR

For `CC(O)(c1ccc(Cl)cc1)C(F)(F)CNC(=O)c1c(Cl)ccc(-c2ccn3nc(N)nc3c2)c1F` (single isomer, unassigned) [Example 223, 3-(2-amino-[1,2,4]triazolo[1,5-a]pyridin-7-yl)-6-chloro-N-(3-(4-chlorophenyl)-2,2-difluoro-3-hydroxybutyl)-2-fluorobenzamide], the IC50 (as a rule, the midpoint of a concentration-inhibition curve) in assay [1] (setting [4]) is 5.8 nM; in assay [2] (setting [5]), 71 nM; in assay [3] (setting [6]), above 15000 nM.

Regarding `Cc1ccc(-c2ccn3nc(N)nc3c2)c(F)c1C(=O)NCCC(O)c1ccc(Cl)c(Cl)c1` (single isomer, unassigned) [Example 34, 3-(2-amino-[1,2,4]triazolo[1,5-a]pyridin-7-yl)-N-(3-(3,4-dichlorophenyl)-3-hydroxypropyl)-2-fluoro-6-methylbenzamide], the IC50 in assay [1] (setting [4]) was 0.8 nM; in assay [2] (setting [5]), 1 nM; in assay [3] (setting [6]), above 15000 nM.

Regarding `Nc1nc2cc(-c3ccc(Cl)c(C(=O)NCC(F)(F)C(=O)c4ccc(F)cc4)c3F)ccn2n1` [Example 280, 3-(2-amino-[1,2,4]triazolo[1,5-a]pyridin-7-yl)-6-chloro-N-(2,2-difluoro-3-(4-fluorophenyl)-3-oxopropyl)-2-fluorobenzamide], the IC50 in assay [1] (setting [4]) worked out at 15 nM; in assay [2] (setting [7]), 1.4 nM; in assay [3] (setting [6]) it was 11000 nM.

With `Cc1ccc(-c2ccn3nc(N)nc3c2)c(F)c1C(=O)NCCC(O)c1ccc(F)c(F)c1` (single isomer, unassigned) [Example 67, 3-(2-amino-[1,2,4]triazolo[1,5-a]pyridin-7-yl)-N-(3-(3,4-difluorophenyl)-3-hydroxypropyl)-2-fluoro-6-methylbenzamide], the IC50 in assay [1] (setting [4]) was 4.4 nM; in assay [1] (setting [8]), 4.4 nM; in assay [2] (setting [5]), 1.3 nM; in assay [2] (read-out: pMLKL IC50, Table 22, compounds of the present invention), 1.3 nM; in assay [3] (setting [6]), above 15000 nM.

As to `Cc1ccc(-c2ccn3nc(N)nc3c2)c(F)c1C(=O)NCCC(O)c1ccc(C(F)(F)F)cc1` (single isomer, unassigned) [Example 57, 3-(2-amino-[1,2,4]triazolo[1,5-a]pyridin-7-yl)-2-fluoro-N-(3-hydroxy-3-(4-(trifluoromethyl)phenyl)propyl)-6-methylbenzamide], the IC50 in assay [1] (setting [4]) is 3.1 nM; in assay [2] (setting [5]), 1.9 nM; in assay [3] (setting [6]), above 15000 nM.

As for `Cc1ccc(-c2ccn3nc(N)nc3c2)c(F)c1C(=O)NCCC(O)c1c(F)cccc1F` (single isomer, unassigned) [Example 74, 3-(2-amino-[1,2,4]triazolo[1,5-a]pyridin-7-yl)-Nr-(3-(2,6-difluorophenyl)-3-hydroxypropyl)-2-fluoro-6-methylbenzamide], the results for the IC50 in assay [1] (setting [4]), in assay [2] (setting [7]) and in assay [3] (setting [6]) were 13 nM, 8.2 nM and above 15000 nM, respectively.

Regarding `Cc1ccc(-c2ccn3nc(N)nc3c2)c(F)c1C(=O)NCCC(O)C1CCCCC1` (single isomer, unassigned) [Example 41, 3-(2-amino-[1,2,4]triazolo[1,5-a]pyridin-7-yl)-N-(3-cyclohexyl-3-hydroxypropyl)-2-fluoro-6-methylbenzamide], the IC50 in assay [1] (setting [4]) is 5.4 nM; in assay [2] (setting [5]) it was 7.7 nM; in assay [3] (setting [6]), above 15000 nM.

Regarding `Cc1ccc(-c2ccn3nc(N)nc3c2)c(F)c1C(=O)NCC(F)(F)C(O)c1ccc(F)cn1` (stereo not shown) [Example 115, 3-{2-amino-[1,2,4]triazolo[1,5-a]pyridin-7-yl}-N-[2,2-difluoro-3-(5-fluoropyridin-2-yl)-3-hydroxypropyl]-2-fluoro-6-methylbenzamide], the IC50 in assay [1] (setting [4]) was 3.6 nM; in assay [2] (HT29-L23 cells, necroptosis induced with TNFα, SMAC mimetic and Z-VAD, 6 h, maximal inhibition defined by Nec1s, read-out: pMLKL IC50), 1.4 nM; in assay [3], above 15000 nM.

For `Nc1nc2cc(-c3ccc(Cl)c(C(=O)NC[C@@H](F)[C@H](O)c4ccc(F)cc4)c3F)ccn2n1` (single isomer, unassigned) [Example 297], the IC50 was 3.7 nM in assay [1] (setting [4]), 1.6 nM in assay [2] (setting [7]) and above 15000 nM in assay [3] (setting [6]).

As to `Nc1nc2cc(-c3ccc(C(F)F)c(C(=O)NCC(F)(F)[C@@H](O)c4ccc(F)cc4)c3F)ccn2n1` [Example 295, (S)-3-(2-amino-[1,2,4]triazolo[1,5-a]pyridin-7-yl)-N-(2,2-difluoro-3-(4-fluorophenyl)-3-hydroxypropyl)-6-(difluoromethyl)-2-fluorobenzamide], the IC50 in assay [1] (setting [4]) is 3.3 nM; in assay [2] (setting [7]), 1.4 nM; in assay [3] (setting [6]), above 15000 nM.

For `Nc1nc2cc(-c3ccc(Cl)c(C(=O)NCC(F)(F)C(O)c4ccc(Cl)c(F)c4)c3F)ccn2n1` (stereo not shown) [Example 190, 3-(2-amino-[1,2,4]triazolo[1,5-a]pyridin-7-yl)-6-chloro-N-(3-(4-chloro-3-fluorophenyl)-2,2-difluoro-3-hydroxypropyl)-2-fluorobenzamide], the IC50 in assay [1] (setting [4]) was 3.3 nM; in assay [2] (setting [7]), 0.7 nM; in assay [3] (setting [6]) it was above 15000 nM.

For the compound `Cc1c(F)cc(-c2ccn3nc(N)nc3c2)cc1C(=O)NCC(F)(F)C(O)c1ccc(F)cc1` (single isomer, unassigned) [Example 232, 5-(2-amino-[1,2,4]triazolo[1,5-a]pyridin-7-yl)-N-(2,2-difluoro-3-(4-fluorophenyl)-3-hydroxypropyl)-3-fluoro-2-methylbenzamide], the IC50 is 4.5 nM in assay [1] (setting [4]), 3 nM in assay [2] (setting [5]) and above 15000 nM in assay [3] (setting [6]).

Consider `Nc1nc2cc(-c3ccc(Cl)c(C(=O)NCCC(O)c4ccc(Cl)cn4)c3F)ccn2n1` (single isomer, unassigned) [Example 82, 3-(2-amino-[1,2,4]triazolo[1,5-a]pyridin-7-yl)-6-chloro-N-(3-(5-chloropyridin-2-yl)-3-hydroxypropyl)-2-fluorobenzamide], for which the IC50 in assay [1] (setting [4]) is 27 nM; in assay [2] (setting [7]), 26 nM; in assay [3] (setting [6]), 12000 nM.

Regarding `Cc1ccc(-c2ccn3nc(N)nc3c2)c(F)c1C(=O)NCCC(O)c1ccc(Cl)cc1F` (single isomer, unassigned) [Example 68, 3-(2-amino-[1,2,4]triazolo[1,5-a]pyridin-7-yl)-N-(3-(4-chloro-2-fluorophenyl)-3-hydroxypropyl)-2-fluoro-6-methylbenzamide], the half-maximal inhibitory concentration (IC50) in assay [1] (setting [4]) is 3.6 nM; in assay [2] (setting [7]) it was 0.6 nM; in assay [3] (setting [6]) it was above 15000 nM.

For `Cc1ccc(-c2ccn3nc(N)nc3c2)cc1C(=O)NCC[C@H](O)c1ccc(Cl)cc1` [Example 149, (S)-5-(2-amino-[1,2,4]triazolo[1,5-a]pyridin-7-yl)-N-(3-(4-chlorophenyl)-3-hydroxypropyl)-2-methylbenzamide], the IC50 was 8.2 nM in assay [1] (setting [4]); 8.2 nM in assay [1] (setting [8]); 1.3 nM in assay [2] (Homo sapiens, 6 h, HT29-L23 cells, necroptosis induced with TNFα, SMAC mimetic and Z-VAD, 6 h, maximal inhibition defined by Nec1s, read-out: pMLKL IC50); 1.3 nM in assay [2] (Homo sapiens, Table 22, compounds of the present invention, read-out: pMLKL IC50); above 15000 nM in assay [3] (setting [6]).

For `COc1ccc(-c2ccn3nc(N)nc3c2)c(F)c1C(=O)NCC(F)(F)C(O)c1ccc(Cl)c(Cl)c1` (stereo not shown) [Example 268, 3-{2-amino-[1,2,4]triazolo[1,5-a]pyridin-7-yl}-N-[3-(3,4-dichlorophenyl)-2,2-difluoro-3-hydroxypropyl]-2-fluoro-6-methoxybenzamide], the 50% inhibitory concentration (IC50) in assay [1] (setting [4]) was 3.8 nM; in assay [2] (setting [5]) it was 4.3 nM; in assay [3] (setting [6]) it was 8800 nM.

Regarding `Cc1ccc(-c2ccn3nc(N)nc3c2)c(F)c1C(=O)NCCC1(c2ccc(F)cc2)CC1` [Example 16, 3-(2-amino-[1,2,4]triazolo[1,5-a]pyridin-7-yl)-2-fluoro-N-(2-(1-(4-fluorophenyl)cyclopropyl)ethyl)-6-methylbenzamide], the IC50 was 0.7 nM in assay [1] (setting [4]), 0.4 nM in assay [2] (setting [7]) and above 15000 nM in assay [3] (setting [6]).

As for `Nc1nc2cc(-c3ccc(Cl)c(C(=O)NCC(F)(F)C(O)c4cc(F)cc(F)c4)c3F)ccn2n1` (stereo not shown) [Example 188, 3-(2-amino-[1,2,4]triazolo[1,5-a]pyridin-7-yl)-6-chloro-N-(3-(3,5-difluorophenyl)-2,2-difluoro-3-hydroxypropyl)-2-fluorobenzamide], the IC50 turned out to be 6.3 nM in assay [1] (setting [4]), 0.3 nM in assay [2] (setting [5]) and 9400 nM in assay [3] (setting [6]).

On to `Cc1cc(F)c(-c2ccn3nc(N)nc3c2)cc1C(=O)NCC(F)(F)C(O)c1ccc(F)cc1` (single isomer, unassigned) [Example 97, 5-(2-amino-[1,2,4]triazolo[1,5-a]pyridin-7-yl)-N-(2,2-difluoro-3-(4-fluorophenyl)-3-hydroxypropyl)-4-fluoro-2-methylbenzamide], for which the IC50 in assay [1] (setting [4]) is 1.3 nM; in assay [2] (setting [5]), 6.4 nM; in assay [3] (setting [6]) it was above 15000 nM.

For `Cc1ccc(-c2ccn3nc(N)nc3c2)c(F)c1C(=O)NCCC(C)(C)c1ccc(Cl)cc1` [Example 15, 3-(2-amino-[1,2,4]triazolo[1,5-a]pyridin-7-yl)-N-(3-(4-chlorophenyl)-3-methylbutyl)-2-fluoro-6-methylbenzamide], the figures for the IC50 in assay [1] (setting [4]), in assay [2] (setting [7]) and in assay [3] (setting [6]) were 1.5 nM, 1.7 nM and above 15000 nM, respectively.
